Laboratory results: patent US6576662B2, “Compounds having anticancer activity : process for their preparation and pharmaceutical compositions containing them” (Dr. Reddy's Laboratories Limited, priority 2000, dated 2003)
Read-outs that look alike come from different tables or passages of the source.

Experiments:
SW-620 = experiment: in vitro anti-cancer screen, Sulforhodamine B method; type: cell-based, human; settings: COLON: SW-620, 48 h incubation, read-out: GROWTH INHIBITION (GI 50)
Protocol: (§1) Each test compound was screened against a battery of cell lines representing eight different types of cancers. In a typical procedure, 1×10^4 cells were seeded into each well of 96 well plate in 100 μL volume of RPMI 1640 medium containing antibiotics and 10% FCS.
(§2) The plates were incubated at 37° C. in presence of CO2. After 24 h, test compounds were evaluated at five 10 fold dilutions ranging from 100 to 0.01 μM. To each test well 100 μL of test compound solution was added and medium with vehicle was added to control wells and the plates were further incubated. After 48 h of incubation, plates were terminated by Sulforhodamine B method.
(§3) The optical density which is proportional to protein mass, is then-read by automated spectrophotometric plate reader at a wavelength of 515 nm.

MCF7 = experiment: as above; type: cell-based, human; settings: Homo sapiens; BREAST: MCF7; 48 h incubation; read-out: GROWTH INHIBITION (GI 50)
Protocol: as §1, §2, §3

U251 = experiment: as above; type: cell-based, human; settings: CNS: U251, 48 h incubation, read-out: GROWTH INHIBITION (GI 50)
Protocol: as §1, §2, §3

A498 = experiment: as above; type: cell-based, human; settings: RENAL: A498, 48 h incubation, read-out: GROWTH INHIBITION (GI 50)
Protocol: as §1, §2, §3

H522 = experiment: as above; type: cell-based, human; settings: LUNG: H522, 48 h incubation, read-out: GROWTH INHIBITION (GI 50)
Protocol: as §1, §2, §3

SKOV-3 = experiment: as above; type: cell-based, human; settings: OVARIAN: SKOV-3, 48 h incubation, read-out: GROWTH INHIBITION (GI 50)
Protocol: as §1, §2, §3

HT29 = experiment: as above; type: cell-based, human; settings: Homo sapiens, HT-29; COLON: HT29; 48 h incubation; read-out: GROWTH INHIBITION (GI 50)
Protocol: as §1, §2, §3

MCF-7/ADR = experiment: as above; type: cell-based, human; settings: BREAST: MCF-7/ADR, 48 h incubation, read-out: GROWTH INHIBITION (GI 50)
Protocol: as §1, §2, §3

PA1 = experiment: as above; type: cell-based, human; settings: Homo sapiens, PA-1; OVARIAN: PA1; 48 h incubation; read-out: GROWTH INHIBITION (GI 50)
Protocol: as §1, §2, §3

UACC62 = experiment: as above; type: cell-based, human; settings: Homo sapiens, UACC-62; MELANOMA: UACC62; 48 h incubation; read-out: GROWTH INHIBITION (GI 50)
Protocol: as §1, §2, §3

DU145 = experiment: as above; type: cell-based, human; settings: PROSTATE: DU145, 48 h incubation, read-out: GROWTH INHIBITION (GI 50)
Protocol: as §1, §2, §3

PC-3 = experiment: as above; type: cell-based; settings: Homo sapiens; PROSTATE: PC-3; 48 h incubation; read-out: GROWTH INHIBITION (GI 50)
Protocol: as §1, §2, §3

M14 = experiment: in vitro anti-cancer screen, Sulforhodamine B method; type: cell-based, human; settings: MELANOMA: M14; 48 h incubation; read-out: GROWTH INHIBITION (GI 50)
Protocol: as §1, §2, §3

KB = KB cells; cited from earlier work
[1] = test system: P388 lymphocytic leukemia; settings: P388 cells; cited from earlier work
tumor cell lines = settings: cited from earlier work
ACHN = experiment: in vitro anti-cancer screen, Sulforhodamine B method; type: cell-based; settings: Homo sapiens; RENAL: ACHN; 48 h incubation; read-out: GROWTH INHIBITION (GI 50)
Protocol: as §1, §2, §3

OVCAR = experiment: as above; type: cell-based; settings: Homo sapiens; OVARIAN: OVCAR; 48 h incubation; read-out: GROWTH INHIBITION (GI 50)
Protocol: as §1, §2, §3

HIV-1(IIIB) = settings: cited from earlier work
HIV-1/MN = experiment: Anti HIV activity, P24 antigen in infected PM-1 cells; type: cell-based; settings: Concentration 1 μM; PM-1 cells infected with HIV-1/MN, 96 h; P24 antigen corrected by MTT
Protocol: Human CD4+T cell line PM-1 used in the assay was cultured in RPMI-1640 medium containing 10% Fetal bovine serum, 2 g/L sodium bicarbonate, 100,000 units/L Penicillin-G and 100 mg/L streptomycin. Healthy PM-1 cells were plated on the first day in a 96 well plate at […]. After 24 h HIV-1/MN was added to the culture and incubated for 2 h for infection. Cells were washed twice with PBS to remove the virus in the culture. Different concentrations of DRF compounds ranging from 10^−4 to 10^−8M were added to the culture and incubated for 96 h. The viability of cells was then assessed by standard MTT assay and the viral antigen P24 levels were estimated by ELSA method. Based on the MTT assay values the P 24 antigen values were corrected. All the samples were tested in triplicates and the average was used for calculations. AZT was used as standard compound for comparision.

Human lymphocytes = experiment: Lymphocyte proliferation, tritiated thymidine incorporation; type: cell-based; settings: Concentration 1 μM; human lymphocytes with Phytohemagglutitin A
Protocol: Human lymphocytes were isolated from whole blood by using Ficoll Hypaque Plus (Amersham). On day one, 1 million lymphocytes were seeded into each well of 96 well plate in 100 μL volume of RPMI 1640 medium containing 10% FCS and Phytohemagglutitin A at 1 μg/well concentration. Plates were incubated at 37° C. in CO2 incubator for 24 h. Test compounds at various concentrations were added to test wells and only medium with vehicle was added to control wells. After 48 h of incubation […] of tritiated thymidine was added to each well. After 24 h of thymidine addition the cells were harvested and the incorporated radioactivity was determined. Stimulation Index (SI) was calculated using the formula, [formula]
A^T=Average CPM of treated wells,
A^C=Average CPM of control wells.

Molecule | GI50 (SW-620; Homo sapiens) [µM] | GI50 (MCF7) [µM] | GI50 (U251; Homo sapiens, U-251) [µM] | GI50 (H522; Homo sapiens, NCI-H522) [µM] | GI50 (SKOV-3; Homo sapiens, SK-OV-3) [µM] | GI50 (HT29) [µM] | GI50 (MCF-7/ADR; Homo sapiens, NCI/ADR-RES) [µM] | GI50 (PA1) [µM] | GI50 (UACC62) [µM] | GI50 (DU145; Homo sapiens, DU-145) [µM] | GI50 (PC-3) [µM] | melting point [°C] | GI50 (SW-620) [µM] | GI50 (M14) [µM] | GI50 (U251) [µM] | GI50 (A498) [µM] | GI50 (H522) [µM] | GI50 (SKOV-3) [µM] | GI50 (MCF-7/ADR) [µM] | GI50 (DU145) [µM] | other results
C=C1CCC2[C@](C)(CO)[C@H](O)CC[C@]2(C)[C@H]1CC(C1=CCOC1=O)n1cc(F)c(=O)[nH]c1=O (stereo partly drawn) [Example 51, 14-Deoxy-12-[N^1-(5-fluorouracil)]andrographolide] | 3.5 | 4 | 2 | 5 | 7 | 10 | 4 | 3 | 6 | 15 | 3 | 155 |  |  |  |  |  |  |  |  | GI50 (A498; Homo sapiens): 2.5 µM
C=C1CCC2C(C)(COC(C)=O)C(OC(C)=O)CCC2(C)C1CC(NCc1ccc(OC)cc1)C1=CCOC1=O (stereo not drawn) [Example 3, 3,19-Diacetyl-14-deoxy-12-(N-4-methoxybenzylamino)andrographolide] |  |  |  |  |  |  |  |  |  |  |  |  | 3.5 | 5.5 | 8 | 0.18 | 0.18 | 0.15 | 5 | 8 | 
C=C1CC[C@@H]2[C@](C)(CO)[C@H](O)CC[C@@]2(C)[C@@H]1C/C=C1/C(=O)OC[C@H]1O [Andrographolide] |  |  |  |  |  |  |  |  |  |  |  |  |  |  |  |  |  |  |  |  | cytotoxic activity (KB): potent cytotoxic activity; cytotoxic activity [1]: potent cytotoxic activity
CC(=O)OCC1(C)C(OC(C)=O)CCC2(C)C(CC(Sc3ccccc3)C3=CCOC3=O)C3(CCC12)CO3 (stereo not drawn) [Example 70, 3,19-Diacetyl-14-deoxy-8,17-epoxy-12-phenylthio andrographolide] |  |  |  |  |  |  |  |  |  |  |  |  | 4 | 3 | 7 | 4 | 7 | 4 | 8 | 2 | 
C=C1CCC2[C@](C)(CC[C@@H](O)[C@@]2(C)CO)C1/C=C/C1=CCOC1=O (stereo partly drawn) [14-deoxy-11,12-didehydroandrographolide] |  |  |  |  |  |  |  |  |  |  |  |  |  |  |  |  |  |  |  |  | cytotoxic activity (tumor cell lines): no cytotoxic activity
C=C1CCC2[C@]3(C)COC(C)(c4ccccc4)O[C@@H]3CC[C@]2(C)[C@H]1CC(C1=CCOC1=O)N1CCCC1C(=O)OC (stereo partly drawn) [Example 23, 14-Deoxy-12-(O-methylprolino)-3,19-O-(1-phenylethylidene)andrographolide] | 2 | 4 | 2 | 15 | 4 | 3 | 2 | 1 | 2 | 11 | 2 | 141 to 143 |  |  |  |  |  |  |  |  | GI50 (ACHN): 13 µM; GI50 (OVCAR): 1 µM
dehydroandrographolide succinic acid monoester [DASM] |  |  |  |  |  |  |  |  |  |  |  |  |  |  |  |  |  |  |  |  | minimal concentration inhibitory to HIV-1(IIIB) (HIV-1(IIIB)): 1.6 to 3.1 µg/mL
C=C1CCC2C(C)(COC(C)=O)C(OC(C)=O)CCC2(C)C1CC(NCc1ccccc1)C1=CCOC1=O (stereo not drawn) [Example 1, 3,19-Diacetyl-12-(N-benzylamino)-14-deoxy andrographolide] |  |  |  |  |  |  |  |  |  |  |  |  | 4 | 5 | 0.2 | 5 | 9 | 0.3 | 8 | 7 | Percentage Inhibition (HIV-1/MN): 73.94; Stimulation Index (SI) (Human lymphocytes): 123
C=C1CC[C@@H]2[C@](C)(CO[C@@H]3O[C@H](CO)[C@@H](O)[C@H](O)[C@H]3O)CCC[C@@]2(C)[C@@H]1CCC1=CCOC1=O [neoandrographolide] |  |  |  |  |  |  |  |  |  |  |  |  |  |  |  |  |  |  |  |  | cytotoxic activity (tumor cell lines): no cytotoxic activity
C=C1CCC2[C@](C)(CO)[C@H](O)CC[C@]2(C)[C@H]1CC(NCc1ccccc1)C1=CCOC1=O (stereo partly drawn) [Example 18, 12-(N-Benzylamino)-14-deoxy andrographolide] | 2.5 | 3 | 0.07 | 6 | 4 | 10 | 2.5 | 3 | 3.5 | 10 | 2.5 | 192 |  |  |  |  |  |  |  |  | GI50 (A498; Homo sapiens): 2.5 µM; Stimulation Index (SI) (Human lymphocytes): 64
C=C1CCC2[C@]3(C)COC(C)(c4ccccc4)OC3CC[C@]2(C)[C@H]1CC(NC(Cc1ccccc1)C(=O)OC)C1=CCOC1=O (stereo partly drawn) [Example 22, 14-Deoxy-12-(O-methylphenylalanino)-3,19-O-(1-phenylethylidene)andrographolide] | 3 | 3 | 3 | 20 | 4 | 3 | 2 | 1.4 | 3 | 12 | 2 | 171.6 to 171.9 |  |  |  |  |  |  |  |  | GI50 (ACHN): 14 µM; GI50 (OVCAR): 1.4 µM
C=C1CCC2C(C)(COC(C)=O)C(OC(C)=O)CCC2(C)C1CC(Sc1ccccc1)C1=CCOC1=O (stereo not drawn) [Example 58, 3,19-Diacetyl-14-deoxy-12-phenylthio andrographolide] |  |  |  |  |  |  |  |  |  |  |  |  | 5 | 4 | 4 | 0.2 | 7 | 6 | 6.5 | 7.5 | Stimulation Index (SI) (Human lymphocytes): 99
Cc1cn([C@H]2C[C@H](N=[N+]=[N-])[C@@H](CO)O2)c(=O)[nH]c1=O [AZT, reference compound] |  |  |  |  |  |  |  |  |  |  |  |  |  |  |  |  |  |  |  |  | Percentage Inhibition (HIV-1/MN): 72.47
